Source: US20230265116A1, “DEGRADATION OF (EGFR) BY CONJUGATION OF EGFR INHIBITORS WITH E3 LIGASE LIGAND AND METHODS OF USE” (BEIGENE, LTD., priority 2020, published 2023)

Molecular target: T1, EGFR (HCC827 cells) (Homo sapiens, UniProt P00533, DEL746-750)
T1 construct: endogenous in cells; host or cells: HCC827
Assay: EGFR degradation HTRF assay, HCC827 cells
Assay type: cell-based
Conditions: HCC827, 16h treatment; for Dmax: maximum percentage of degradation
Procedure: BaF3 WT(wild type), BaF3-LTC(L858R/T790M/C797S) and BaF3-DTC(Del19/T790M/C797S) cells are treated with compounds diluted in 0.2% DMSO cell culture medium and incubate for 16h, 37° C., 5% CO2, H1975-#36, H1975-#28, H1975-#23 and HCC827 cells are treated with compounds diluted in 0.2% DMSO cell culture medium on day 2, incubate for 16h, 37° C., 5% CO2.the final concentriation of compounds in all assay is start with 10 uM, 5-fold dilution, total 8 doses were included.
After 16h treatment, add HTRF lysis buffer to each well; seal the plate and incubate 1 hour at room temperature on a plate shaker; Once the cells are lysed, 16 μL of cell lysate are transferred to a PE 384-well HTRF detection plate; 4 μL of pre-mixed HTRF antibodies are added to each well; Cover the plate with a plate sealer, spin 1000 rpm for 1 min, Incubate overnight at room temperature; Read on BMG PheraStar with HTRF protocol (337 nm-665 nm-620 nm).
The inhibition (degradation) percentage of the compound was calculated by the following equation: Inhibition percentage of Compound=100-100×(Signal-low control)/(High control-low control), wherein signal=each test compound group
High control=Cell group with added DMSO and without compound, indicating microplate readings without EGFR degradation;
Dmax is the maximum percentage of inhibition (degradation).
The IC50 (DC50) value of a compound can be obtained by fitting the following equation
Y=Bottom+(TOP−Bottom)/(1+((IC50/X)^hillslope))
Wherein, X and Y are known values, and IC50, Hillslope, Top and Bottom are the parameters obtained by fitting with software. Y is the inhibition percentage (calculated from the equation), X is the concentration of the compound; IC50 is the concentration of the compound when the 50% inhibition is reached. The smaller the IC50 value is, the stronger the inhibitory ability of the compound is. Vice versa, the higher the IC50 value is, the weaker the inhibitory ability of the compound is; Hillslope represents the slope of the fitted curve, generally around 1*; Bottom represents the minimum value of the curve obtained by data fitting, which is generally 0%±20%; Top represents the maximum value of the curve obtained by data fitting, which is generally 100%±20%. The experimental data were fitted by calculating and analyzing with Dotmatics data analysis software.

T1 sequence (P00533 with tags, fused parts or gaps DEL746-750): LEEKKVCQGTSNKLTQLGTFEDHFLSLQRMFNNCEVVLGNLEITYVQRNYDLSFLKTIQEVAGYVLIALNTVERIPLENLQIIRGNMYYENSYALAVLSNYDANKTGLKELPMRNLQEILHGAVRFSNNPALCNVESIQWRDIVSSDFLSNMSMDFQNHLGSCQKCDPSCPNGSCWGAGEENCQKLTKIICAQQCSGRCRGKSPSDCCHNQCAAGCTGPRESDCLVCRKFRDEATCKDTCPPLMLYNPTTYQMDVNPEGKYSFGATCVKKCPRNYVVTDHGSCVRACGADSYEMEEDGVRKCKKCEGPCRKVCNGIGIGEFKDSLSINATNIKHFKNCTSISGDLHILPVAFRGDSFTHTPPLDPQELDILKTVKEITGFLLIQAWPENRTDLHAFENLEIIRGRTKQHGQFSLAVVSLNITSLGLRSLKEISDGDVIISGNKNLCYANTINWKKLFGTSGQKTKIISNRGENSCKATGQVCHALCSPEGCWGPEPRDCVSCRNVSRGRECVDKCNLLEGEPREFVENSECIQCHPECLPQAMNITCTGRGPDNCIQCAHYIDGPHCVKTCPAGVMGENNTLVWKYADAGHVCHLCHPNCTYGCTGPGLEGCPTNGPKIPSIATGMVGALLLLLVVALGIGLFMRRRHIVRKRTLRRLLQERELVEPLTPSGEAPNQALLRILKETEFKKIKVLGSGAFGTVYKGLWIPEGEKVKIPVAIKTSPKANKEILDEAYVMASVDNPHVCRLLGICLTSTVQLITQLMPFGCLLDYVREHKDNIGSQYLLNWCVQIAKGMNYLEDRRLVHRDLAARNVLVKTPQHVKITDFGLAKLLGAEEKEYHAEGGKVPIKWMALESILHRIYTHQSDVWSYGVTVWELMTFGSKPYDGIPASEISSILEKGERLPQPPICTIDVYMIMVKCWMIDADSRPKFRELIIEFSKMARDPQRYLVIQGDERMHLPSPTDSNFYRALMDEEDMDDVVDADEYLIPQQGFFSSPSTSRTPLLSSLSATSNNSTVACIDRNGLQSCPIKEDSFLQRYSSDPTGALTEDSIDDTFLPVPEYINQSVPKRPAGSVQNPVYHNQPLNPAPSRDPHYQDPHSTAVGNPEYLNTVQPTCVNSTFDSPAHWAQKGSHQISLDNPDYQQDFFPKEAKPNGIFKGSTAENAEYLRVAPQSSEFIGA

| DC50 [nM] | Dmax [%] | SMILES |
| --- | --- | --- |
| 39.1 | 78.2 | COc1cc(N2CCN(CCc3ccc(C4CCC(=O)NC4=O)cc3)CC2)ccc1Nc1ncc(Cl)c(Nc2ccccc2N(C)S(C)(=O)=O)n1 (centres unmarked) [Example 133, N-(2-((5-chloro-2-((4-(4-(4-(2,6-dioxopiperidin-3-yl)phenethyl)piperazin-1-yl)-2-methoxyphenyl)amino)pyrimidin-4-yl)amino)phenyl)-N-methylmethanesulfonamide] |
| 34 | 80 | COc1cc(N2CCC(NCCCCCCCc3ccc(C4CCC(=O)NC4=O)cc3)CC2)ccc1Nc1ncc(Cl)c(Nc2ccccc2N(C)S(C)(=O)=O)n1 (centres unmarked) [Example 132, N-(2-((5-chloro-2-((4-(4-((7-(4-(2,6-dioxopiperidin-3-yl)phenyl)heptyl)amino)piperidin-1-yl)-2-methoxyphenyl)amino)pyrimidin-4-yl)amino)phenyl)-N-methylmethanesulfonamide] |
| 17.2 | 79.3 | COc1cc(N2CCC(N3CCN(C(=O)CC4CCN(c5ccc(C6CCC(=O)NC6=O)cc5)CC4)CC3)CC2)ccc1Nc1ncc(Cl)c(Nc2ccccc2P(C)(C)=O)n1 (centres unmarked) [Example 107, 3-(4-(4-(2-(4-(1-(4-((5-chloro-4-((2-(dimethylphosphoryl)phenyl)amino)pyrimidin-2-yl)amino)-3-methoxyphenyl)piperidin-4-yl)piperazin-1-yl)-2-oxoethyl)piperidin-1-yl)phenyl)piperidine-2,6-dione] |
| 112 | 81.1 | COc1cc(N2CCC(N3CCN(CCc4ccc(CN5CCC(=O)NC5=O)cc4)CC3)CC2)ccc1Nc1ncc(Cl)c(Nc2ccccc2P(C)(C)=O)n1 [Example 111, 1-(4-(2-(4-(1-(4-((5-chloro-4-((2-(dimethylphosphoryl)phenyl)amino)pyrimidin-2-yl)amino)-3-methoxyphenyl)piperidin-4-yl)piperazin-1-yl)ethyl)benzyl)dihydropyrimidine-2,4(1H,3H)-dione] |
| 68.5 | 79.5 | CN(c1ccccc1Nc1nc(Nc2ccc(N3CC4(CN(CCc5ccc(NC6CCC(=O)NC6=O)cc5)C4)C3)c(F)c2)ncc1Cl)S(C)(=O)=O (centres unmarked) [Example 136, N-(2-((5-chloro-2-((4-(6-(4-((2,6-dioxopiperidin-3-yl)amino)phenethyl)-2,6-diazaspiro[3.3]heptan-2-yl)-3-fluorophenyl)amino)pyrimidin-4-yl)amino)phenyl)-N-methylmethanesulfonamide] |
| 53.6 | 75.7 | COc1cc(N2CCC(N3CCN(CCC4CCN(c5ccc(N6CCC(=O)NC6=O)cc5)CC4)CC3)CC2)ccc1Nc1ncc(Cl)c(Nc2ccccc2NS(C)(=O)=O)n1 [Example 139, N-(2-((5-chloro-2-((4-(4-(4-(2-(1-(4-(2,4-dioxotetrahydropyrimidin-1(2H)-yl)phenyl)piperidin-4-yl)ethyl)piperazin-1-yl)piperidin-1-yl)-2-methoxyphenyl)amino)pyrimidin-4-yl)amino)phenyl) methanesulfonamide] |
| 130 | 72.4 | COc1cc(N2CCN(CCc3ccc(OC4CCC(=O)NC4=O)cc3)CC2)c(C)cc1Nc1ncc(Br)c(Nc2ccc3nccnc3c2P(C)(C)=O)n1 (centres unmarked) [Example 93, 3-(4-(2-(4-(4-((5-bromo-4-((5-(dimethylphosphoryl)quinoxalin-6-yl)amino)pyrimidin-2-yl)amino)-5-methoxy-2-methylphenyl)piperazin-1-yl)ethyl)phenoxy)piperidine-2,6-dione] |
| 19 | 80.8 | COc1cc(N2CCC(N3CCN(CCC4CCN(c5ccc(C6CCC(=O)NC6=O)cc5)CC4)CC3)CC2)ccc1Nc1ncc(Cl)c(Nc2ccccc2N(C)S(C)(=O)=O)n1 (centres unmarked) [Example 121, N-(2-((5-chloro-2-((4-(4-(4-(2-(1-(4-(2,6-dioxopiperidin-3-yl)phenyl)piperidin-4-yl)ethyl)piperazin-1-yl)piperidin-1-yl)-2-methoxyphenyl)amino)pyrimidin-4-yl)amino)phenyl)-N-methylmethanesulfonamide] |
| 38 | 77.6 | CN(c1ccccc1Nc1nc(Nc2ccc(N3CC4(CN(CCc5ccc(C6CCC(=O)NC6=O)cc5)C4)C3)c(F)c2)ncc1Cl)S(C)(=O)=O (centres unmarked) [Example 134, N-(2-((5-chloro-2-((4-(6-(4-(2,6-dioxopiperidin-3-yl)phenethyl)-2,6-diazaspiro[3.3]heptan-2-yl)-3-fluorophenyl)amino)pyrimidin-4-yl)amino)phenyl)-N-methylmethanesulfonamide] |
| 66.7 | 81 | COc1cc(N2CCN(CCc3ccc(C4CCC(=O)NC4=O)cc3)CC2)c(C)cc1Nc1ncc(Br)c(Nc2ccc3nccnc3c2P(C)(C)=O)n1 (centres unmarked) [Example 86, 3-(4-(2-(4-(4-((5-bromo-4-((5-(dimethylphosphoryl)quinoxalin-6-yl)amino)pyrimidin-2-yl)amino)-5-methoxy-2-methylphenyl)piperazin-1-yl)ethyl)phenyl)piperidine-2,6-dione] |
| 32.2 | 58.5 | COc1cc(N2CCN(CCC3CCN(c4ccc(N5CCC(=O)NC5=O)cc4)CC3)CC2)c(C)cc1Nc1ncc(Br)c(Nc2ccc3nccnc3c2P(C)(C)=O)n1 [Example 94, 1-(4-(4-(2-(4-(4-((5-bromo-4-((5-(dimethylphosphoryl)quinoxalin-6-yl)amino)pyrimidin-2-yl)amino)-5-methoxy-2-methylphenyl)piperazin-1-yl)ethyl)piperidin-1-yl)phenyl)dihydropyrimidine-2,4(1H,3H)-dione] |
| 15.2 | 70.1 | COc1cc(N2CCC(N(C)CCC3CCN(c4ccc(C5CCC(=O)NC5=O)cc4)CC3)CC2)c(C)cc1Nc1ncc(Br)c(Nc2ccc3nccnc3c2P(C)(C)=O)n1 (centres unmarked) [Example 78, 3-(4-(4-(2-((1-(4-((5-bromo-4-((5-(dimethylphosphoryl)quinoxalin-6-yl)amino)pyrimidin-2-yl)amino)-5-methoxy-2-methylphenyl)piperidin-4-yl)(methyl)amino)ethyl)piperidin-1-yl)phenyl)piperidine-2,6-dione] |
| 9.41 | 92.5 | CN(c1ccccc1Nc1nc(Nc2ccc(N3CC4(CN(C(=O)C5CCN(CC6CCN(c7ccc8c(c7)C(=O)N(C7CCC(=O)NC7=O)C8=O)CC6)CC5)C4)C3)c(F)c2)ncc1Cl)S(C)(=O)=O (centres unmarked) [Example 137, N-(2-((5-chloro-2-((4-(6-(1-((1-(2-(2,6-dioxopiperidin-3-yl)-1,3-dioxoisoindolin-5-yl)piperidin-4-yl)methyl)piperidine-4-carbonyl)-2,6-diazaspiro[3.3]heptan-2-yl)-3-fluorophenyl)amino)pyrimidin-4-yl)amino)phenyl)-N-methylmethanesulfonamide] |
| 6.24 | 83.7 | CCc1cc(Nc2ncc(Br)c(Nc3ccc4nccnc4c3P(C)(C)=O)n2)c(OC)cc1N1CCC(N2CCN(C(=O)CCCCN3CCN(c4ccc5c(c4)C(=O)N(C4CCC(=O)NC4=O)C5=O)CC3)CC2)CC1 (centres unmarked) [Example 62, 5-(4-(5-(4-(1-(4-((5-bromo-4-((5-(dimethylphosphoryl)quinoxalin-6-yl)amino)pyrimidin-2-yl)amino)-2-ethyl-5-methoxyphenyl)piperidin-4-yl)piperazin-1-yl)-5-oxopentyl)piperazin-1-yl)-2-(2,6-dioxopiperidin-3-yl)isoindoline-1,3-dione] |
| 8.23 | 82.4 | COc1cc(N2CCC(N3CCN(C(=O)CCCCN4CCN(c5ccc6c(c5)C(=O)N(C5CCC(=O)NC5=O)C6=O)CC4)CC3)CC2)ccc1Nc1ncc(Cl)c(Nc2ccccc2P(C)(C)=O)n1 (centres unmarked) [Example 114, 5-(4-(5-(4-(1-(4-((5-chloro-4-((2-(dimethylphosphoryl)phenyl)amino)pyrimidin-2-yl)amino)-3-methoxyphenyl)piperidin-4-yl)piperazin-1-yl)-5-oxopentyl)piperazin-1-yl)-2-(2,6-dioxopiperidin-3-yl)isoindoline-1,3-dione] |
| 45.8 | 80.8 | COc1cc(N2CCC(N3CCN(C(=O)CN4CCN(c5ccc6c(c5)C(=O)N(C5CCC(=O)NC5=O)C6)CC4)CC3)CC2)ccc1Nc1ncc(Cl)c(Nc2ccccc2N(C)S(C)(=O)=O)n1 (centres unmarked) [Example 130, N-(2-((5-chloro-2-((4-(4-(4-(2-(4-(2-(2,6-dioxopiperidin-3-yl)-3-oxoisoindolin-5-yl)piperazin-1-yl)acetyl)piperazin-1-yl)piperidin-1-yl)-2-methoxyphenyl)amino)pyrimidin-4-yl)amino)phenyl)-N-methylmethanesulfonamide] |
